Measured values from patent US20170101438A1, “COSMETIC OR PHARMACEUTICAL METHODS FOR THE TREATMENT AND/OR CARE OF THE SKIN AND/OR HAIR USING TRIPEPTIDES CAPABLE OF STIMULATING CYCLIC ADENOSINE MONOPHOSPHATE SYNTHESIS” (Lipotec, S.A., priority 2009, published 2017).

What was measured:
[1] = tested on: human G361 melanocyte cell line; assay: cAMP synthesis stimulation assay (competitive ELISA); format: cell-based; details: G361 cells, normalized to average basal cAMP values
Procedure: cAMP synthesis stimulation was assessed in the human G361 melanocyte cell line in the presence of the peptides of the invention. The cells were seeded (10^6 cells/plate 25 cm^2) and incubated for 24 hours in McCoy's complete medium, after which the peptides were added to 10 μM and were incubated for another 24 hours. 40 μM forskolin was used as a positive control. The cells were centrifuged and the supernatants were collected, and the cAMP levels were determined by carrying out a competitive ELISA assay following the protocols of the commercial kit (Cayman, Ref 0.581001)

[2] = tested on: human G361 melanocyte cell line; assay: Melanogenesis stimulation (melanin extracted, absorbance at 470 nm); format: cell-based; details: 4 days, G361 cells, normalized to number of cells
Procedure: A human G361 melanocyte cell line was incubated for 4 days on a 12-well plate in presence of the peptide at various concentrations, after which the cells were trypsinized, the melanin was extracted and was quantified by measuring the absorbance at 470 nm in a spectrophotometer. The values obtained were normalized with regards to the number of cells. The concentration of melanin was determined in pg/cell using a standard regression analysis obtained with synthetic melanin at known concentrations.

| Compound | cAMP increase ([1]; positive control 40 μM) [%] | cAMP increase ([1]; peptide 10 μM, 24 hours) [%] | Melanin synthesis stimulation ([2]; 10 μM) [%] | Melanin synthesis stimulation ([2]; 50 μM) [%] | Melanin synthesis stimulation ([2]; 100 μM) [%] |
| --- | --- | --- | --- | --- | --- |
| C=C[C@@]1(C)CC(=O)[C@]2(O)[C@@]3(C)[C@@H](O)CCC(C)(C)[C@@H]3[C@H](O)[C@H](OC(C)=O)[C@@]2(C)O1 [Forskolin, reference compound] | 117 |  |  |  |  |
| Palm-L-Tyr-L-Tyr-L-Met-NH2 |  | 57 | 64 | 79 | 138 |
